Numbers after ± are expanded uncertainties.
Details: Gas, Capillary tube (Ostwald / Ubbelohde) method

## O=C=O [carbon dioxide]
308.2 K, 1200 kPa
  viscosity: 0.0153 ± 0.0005 mPa·s
308.2 K, 2070 kPa
  viscosity: 0.0154 ± 0.0005 mPa·s
308.2 K, 11330 kPa
  viscosity: 0.0638 ± 0.0012 mPa·s
308.2 K, 22090 kPa
  viscosity: 0.0882 ± 0.0017 mPa·s
308.2 K, 34970 kPa
  viscosity: 0.1068 ± 0.0021 mPa·s
308.2 K, 68930 kPa
  viscosity: 0.1441 ± 0.0028 mPa·s
308.2 K, 101200 kPa
  viscosity: 0.1733 ± 0.0036 mPa·s
308.2 K, 150520 kPa
  viscosity: 0.222 ± 0.0047 mPa·s
323.2 K, 1270 kPa
  viscosity: 0.0161 ± 0.0005 mPa·s
323.2 K, 2050 kPa
  viscosity: 0.0163 ± 0.0005 mPa·s
323.2 K, 5040 kPa
  viscosity: 0.0174 ± 0.0005 mPa·s
323.2 K, 11440 kPa
  viscosity: 0.0398 ± 0.001 mPa·s
323.2 K, 20670 kPa
  viscosity: 0.0711 ± 0.0015 mPa·s
323.2 K, 50820 kPa
  viscosity: 0.112 ± 0.0024 mPa·s
323.2 K, 105530 kPa
  viscosity: 0.1606 ± 0.0035 mPa·s
323.2 K, 150430 kPa
  viscosity: 0.1953 ± 0.0043 mPa·s
